According to US4916214A, “Cationic complexes of technetium-99m” (Amersham International plc., priority 1987, dated 1990):
Read-outs that look alike come from different tables or passages of the source.

Tests used:
[1] = rat, in vivo
Method: (§1) In vivo biodistribution: 0.1 ml Tc^99m prep was injected i.v. into a laterial tail vein of 6 anaesthetised rats.
(§2) At 2 minutes and 60 minutes post-injection, 3 rats were sacrificed by decapitation, bled from the neck and dissected. The following organs were removed at dissection: kidney; bladder(+ urine), lung, liver, spleen, stomach, small intestine, large intestine, brain (weighed), heart (weighed), thyroid and samples of blood (weighed) and muscle (weighed), the residual carcass and the tail (injection site). Subsequently samples were counted in an automatic twin crystal gamma counter.
(§3) Percentage biodistribution of injected material was calculated (after correction for background) for all organs using the formula: [formula]
(§4) Since only samples of muscle and blood were taken, the percentage in these tissues was calculated assuming blood and muscle to represent 5.8 and 43% of total animal weight respectively using the formula: [formula]

[2] = Animal biodistribution of 99mTc complexes in guinea pigs; type: in vivo, guinea pig;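 note: Heart, liver and kidney plus urine values are percent of the injected material, background-corrected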
Method: as §3, §4
Since only samples of muscle and blood were taken, the percentage in these tissues was calculated assuming blood and muscle to represent 5.8 and 43% of total animal weight respectively using the formula: [formula] where CF= 0.058 for blood

[3] = Animal biodistribution of 99mTc complexes in rats (i.v. injection, organ counting); details: Table VII, nitrosyl complex [Tc(NO)Cl2 L2 ]^- of the ligand, 60 min p.i.
Method: as §1, §2, §3, §4

[4] = guinea pig, 2 min p.i. in vivo, mean
[5] = guinea pig, 60 min p.i. in vivo, mean
[6] = Table VIII, [TcL3 ]^+ complex of the ligand, guinea pigs, 2 min p.i.
[7] = Table VIII, [TcL3 ]^+ complex of the ligand, guinea pigs, 60 min p.i.

COCC(COC)(CP(C)C)CP(C)C.COCC(COC)(CP(C)C)CP(C)C.COCC(COC)(CP(C)C)CP(C)C.[99Tc+] [Example 18]
Blood ([1]; 2 min): 2.85 injected dose/organ
Heart ([1]; 2 min): 1.87 injected dose/organ
Heart/Blood Counts/Gram ratio ([1]; 2 min): 10.4
Heart/Liver Counts/Gram ratio ([1]; 2 min): 1.68
Heart/Lung Counts/Gram ratio ([1]; 2 min): 1.2
Heart/Muscle Counts/Gram ratio ([1]; 2 min): 8.45
Kidney + Urine ([1]; 2 min): 10.6 injected dose/organ
Liver ([1]; 2 min): 16.3 injected dose/organ
Liver + GI ([1]; 2 min): 36.4 injected dose/organ
Lung ([1]; 2 min): 2.59 injected dose/organ
Muscle ([1]; 2 min): 26.3 injected dose/organ
Blood ([1]; 60 min): 0.14 injected dose/organ
Heart ([1]; 60 min): 1.41 injected dose/organ
Heart/Blood Counts/Gram ratio ([1]; 60 min): 152
Heart/Liver Counts/Gram ratio ([1]; 60 min): 8.42
Heart/Lung Counts/Gram ratio ([1]; 60 min): 3.2
Heart/Muscle Counts/Gram ratio ([1]; 60 min): 8.36
Kidney + Urine ([1]; 60 min): 12.2 injected dose/organ
Liver ([1]; 60 min): 2.45 injected dose/organ
Liver + GI ([1]; 60 min): 49.92 injected dose/organ
Lung ([1]; 60 min): 0.75 injected dose/organ
Muscle ([1]; 60 min): 19.4 injected dose/organ
Blood [2, 4]: 5.14 % injected dose/organ
Heart [2, 4]: 1.2 % injected dose/organ
Heart/Blood Counts/Gram ratio [2, 4]: 5.7
Heart/Liver Counts/Gram ratio [2, 4]: 1.12
Heart/Lung Counts/Gram ratio [2, 4]: 0.6
Heart/Muscle Counts/Gram ratio [2, 4]: 6.5
Kidney + Urine [2, 4]: 14.5 % injected dose/organ
Liver [2, 4]: 17.3 % injected dose/organ
Liver + GI [2, 4]: 36.9 % injected dose/organ
Lung [2, 4]: 1.65 % injected dose/organ
Muscle [2, 4]: 27.4 % injected dose/organ
Blood [2, 5]: 0.46 % injected dose/organ
Heart [2, 5]: 1.06 % injected dose/organ
Heart/Blood Counts/Gram ratio [2, 5]: 56.1
Heart/Liver Counts/Gram ratio [2, 5]: 5.63
Heart/Lung Counts/Gram ratio [2, 5]: 1.9
Heart/Muscle Counts/Gram ratio [2, 5]: 6.14
Kidney + Urine [2, 5]: 15.0 % injected dose/organ
Liver [2, 5]: 2.6 % injected dose/organ
Liver + GI [2, 5]: 53.3 % injected dose/organ
Lung [2, 5]: 0.56 % injected dose/organ
Muscle [2, 5]: 23.7 % injected dose/organ

COCC(COC)(CP(C)C)CP(C)C.COCC(COC)(CP(C)C)CP(C)C.O=[N][99Tc+][Cl].[Cl-] [Example 19]
Blood ([1]; 2 min): 2.05 % injected dose/organ
Heart ([1]; 2 min): 1.56 % injected dose/organ
Heart/Blood Counts/Gram ratio ([1]; 2 min): 10.9
Heart/Liver Counts/Gram ratio ([1]; 2 min): 1.56
Heart/Lung Counts/Gram ratio ([1]; 2 min): 1.8
Heart/Muscle Counts/Gram ratio ([1]; 2 min): 4.57
Kidney + Urine ([1]; 2 min): 8.94 % injected dose/organ
Liver ([1]; 2 min): 13.2 % injected dose/organ
Liver + GI ([1]; 2 min): 35.3 % injected dose/organ
Lung ([1]; 2 min): 1.33 % injected dose/organ
Muscle ([1]; 2 min): 36.2 % injected dose/organ
Blood ([1]; 60 min): 0.14 % injected dose/organ
Heart ([1]; 60 min): 1.47 % injected dose/organ
Heart/Blood Counts/Gram ratio ([1]; 60 min): 192
Heart/Liver Counts/Gram ratio ([1]; 60 min): 17.2
Heart/Lung Counts/Gram ratio ([1]; 60 min): 3.6
Heart/Muscle Counts/Gram ratio ([1]; 60 min): 5.6
Kidney + Urine ([1]; 60 min): 11.0 % injected dose/organ
Liver ([1]; 60 min): 1.03 % injected dose/organ
Liver + GI ([1]; 60 min): 45.5 % injected dose/organ
Lung ([1]; 60 min): 0.68 % injected dose/organ
Muscle ([1]; 60 min): 28.2 % injected dose/organ
Blood [2, 4]: 3.77 % injected dose/organ
Heart [2, 4]: 1.36 % injected dose/organ
Heart/Blood Counts/Gram ratio [2, 4]: 8.66
Heart/Liver Counts/Gram ratio [2, 4]: 2.20
Heart/Lung Counts/Gram ratio [2, 4]: 0.9
Heart/Muscle Counts/Gram ratio [2, 4]: 4.65
Kidney + Urine [2, 4]: 15.5 % injected dose/organ
Liver [2, 4]: 11.0 % injected dose/organ
Liver + GI [2, 4]: 35.0 % injected dose/organ
Lung [2, 4]: 1.57 % injected dose/organ
Muscle [2, 4]: 38.6 % injected dose/organ
Blood [2, 5]: 0.48 % injected dose/organ
Heart [2, 5]: 1.05 % injected dose/organ
Heart/Blood Counts/Gram ratio [2, 5]: 49.6
Heart/Liver Counts/Gram ratio [2, 5]: 17.5
Heart/Lung Counts/Gram ratio [2, 5]: 2.0
Heart/Muscle Counts/Gram ratio [2, 5]: 4.77
Kidney + Urine [2, 5]: 18.1 % injected dose/organ
Liver [2, 5]: 0.92 % injected dose/organ
Liver + GI [2, 5]: 45.9 % injected dose/organ
Lung [2, 5]: 0.52 % injected dose/organ
Muscle [2, 5]: 30.6 % injected dose/organ

CP(C)CCP(C)C [dmpe, di(dimethylphosphino) ethane, reference compound]
Heart/Liver Counts/Gram ratio [3]: 1.52
Heart [2, 6]: 0.53 % injected dose
Heart/Blood Counts/Gram ratio [2, 6]: 0.42
Heart/Liver Counts/Gram ratio [2, 6]: 0.30
Heart/Muscle Counts/Gram ratio [2, 6]: 6.11
Liver [2, 6]: 38.0 % injected dose
Heart [2, 7]: 0.38 % injected dose
Heart/Blood Counts/Gram ratio [2, 7]: 3.27
Heart/Liver Counts/Gram ratio [2, 7]: 0.13
Heart/Muscle Counts/Gram ratio [2, 7]: 4.12
Liver [2, 7]: 36.8 % injected dose
